target: T1, Kv1.5 (Homo sapiens, UniProt P22460); experiment: Kv1.5 Patch Clamp EP; format: cell-based; details: 1.0 μM, single point; whole cell patch clamp, Kv1.5 stably over expressed in HEK or LTK- cells
T1 construct: expressed in transfected cells; host or cells: HEK or LTK- cells
Description: The external solution is standard Tyrodes solution. […] Inhibition was measured at the end of the 1 second pulses and expressed relative to controls. Initial Kv1.5 inhibition is estimated by single point determinations done at 1 μM.

T1 sequence (P22460 whole entry): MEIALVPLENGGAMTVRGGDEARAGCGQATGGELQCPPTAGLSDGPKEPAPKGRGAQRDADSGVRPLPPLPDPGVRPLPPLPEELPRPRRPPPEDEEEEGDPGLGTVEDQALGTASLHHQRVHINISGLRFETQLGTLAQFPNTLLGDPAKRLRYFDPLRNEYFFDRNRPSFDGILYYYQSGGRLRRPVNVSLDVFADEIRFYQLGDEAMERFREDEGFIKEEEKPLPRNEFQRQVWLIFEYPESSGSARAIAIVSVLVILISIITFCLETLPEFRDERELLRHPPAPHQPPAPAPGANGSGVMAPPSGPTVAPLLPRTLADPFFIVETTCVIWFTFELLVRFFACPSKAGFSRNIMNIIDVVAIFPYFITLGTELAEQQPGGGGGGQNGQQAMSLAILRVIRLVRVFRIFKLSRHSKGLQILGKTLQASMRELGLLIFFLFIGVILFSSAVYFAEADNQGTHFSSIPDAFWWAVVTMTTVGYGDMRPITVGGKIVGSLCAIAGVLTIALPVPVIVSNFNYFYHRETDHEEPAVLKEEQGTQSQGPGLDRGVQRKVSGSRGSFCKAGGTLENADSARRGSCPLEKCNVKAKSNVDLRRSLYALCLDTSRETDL

| inhibition at 1 µM [%] | Structure (SMILES) |
| --- | --- |
| 5 | COc1ccc(CCN2C(=O)N(NS(C)(=O)=O)CC2Cc2ccc(F)cc2)cc1 (stereo not shown) [Compound 120, N-{4-(4-fluorobenzyl)-3-[2-(4-methoxyphenyl)ethyl]-2-oxoimidazolidin-1-yl}methanesulfonamide] |
| 2 | COc1ccc(CCN2C(=O)N(N)CC2c2ccc(OC(C)C)cc2)cc1 (stereo not shown) [Compound 164, 1-amino-4-(4-isopropoxyphenyl)-3-[2-(4-methoxyphenyl)ethyl]imidazolidin-2-one] |
| 46 | COc1ccc(CCN2C(=O)N(NS(C)(=O)=O)CC2c2ccc3c(c2)OCO3)cc1 (stereo not shown) [Compound 15, 1-(Methylsulfonylamino)-3-[2-(4-methoxyphenyl)ethyl]-4-(benzo[1,3]dioxol-5-yl)-2-imidazolidinone] |
| 16 | COc1ccc(CCN2C(=O)N(NS(C)(=O)=O)CC2c2ccc3c(c2)OCCO3)cc1OC (stereo not shown) [Compound 144, N-{4-(2,3-dihydro-1,4-benzodioxin-6-yl)-3-[2-(3,4-dimethoxyphenyl)ethyl]-2-oxoimidazolidin-1-yl}methanesulfonamide] |
| 37 | COc1ccc(CCN2C(=O)N(N3CCN(C(=O)N(C)C)CC3)CC2c2ccc(C(C)(C)C)cc2)cc1 (stereo not shown) [Compound 130, 4-{4-(4-tert-butylphenyl)-3-[2-(4-methoxyphenyl)ethyl]-2-oxoimidazolidin-1-yl}-N,N-dimethylpiperazine-1-carboxamide] |
| 10 | COc1ccc(CCN2C(=O)N(NS(C)(=O)=O)CC2c2ccc(OC)c(OC)c2)cc1 (stereo not shown) [Compound 158, N-{4-(3,4-dimethoxyphenyl)-3-[2-(4-methoxyphenyl)ethyl]-2-oxoimidazolidin-1-yl}methanesulfonamide] |
| 16 | CC(C)(C)c1ccc(C2CN(NS(C)(=O)=O)C(=O)N2CCc2ccc(OCCN3CCOCC3)cc2)cc1 (stereo not shown) [Compound 169, N-[4-(4-tert-butylphenyl)-3-{2-[4-(2-morpholin-4-ylethoxy)phenyl]ethyl}-2-oxoimidazolidin-1-yl]methanesulfonamide] |
| 7 | COc1ccc(CCN2C(=O)N(N)CC2c2ccc(OC(F)(F)F)cc2)cc1 (stereo not shown) [Compound 110, 1-amino-3-[2-(4-methoxyphenyl)ethyl]-4-[4-(trifluoromethoxy)phenyl]imidazolidin-2-one] |
| 6 | COc1ccc(CCN2C(=O)N(NS(=O)(=O)CC(=O)OCC3c4ccccc4-c4ccccc43)CC2c2ccc(C3CC3)cc2)cc1 (stereo not shown) [Compound 102, 1-[[2-(9H-fluoren-9-ylmethoxy)-2-oxoethyl]sulfonylamino]-3-[2-(4-methoxyphenyl)ethyl]-4-(4-cyclopropylphenyl)-2-imidazolidinone] |
| 21 | COc1ccc(CCN2C(=O)N(NS(C)(=O)=O)CC2c2ccc3ncccc3c2)cc1 (stereo not shown) [Compound 143, N-{3-[2-(4-methoxyphenyl)ethyl]-2-oxo-4-quinolin-6-ylimidazolidin-1-yl}methanesulfonamide] |
| 22 | COc1ccc(CCN2C(=O)N(NS(=O)(=O)Cc3cccnc3)CC2C2(c3ccccc3)CC2)cc1 (stereo not shown) [Compound 134, N-{3-[2-(4-methoxyphenyl)ethyl]-2-oxo-4-(1-phenylcyclopropyl)imidazolidin-1-yl}-1-pyridin-3-ylmethanesulfonamide] |
| 46 | COc1ccc(CCN2C(=O)N(N)CC2c2ccc(C(C)(C)C)cc2)cc1 (stereo not shown) [Compound 2, 1-Amino-4-[4-(tert-butyl)phenyl]-3-[2-(4-methoxyphenyl)ethyl]-2-imidazolidinone] |
| 30 | COc1ccc(CCN2C(=O)N(NS(C)(=O)=O)CC2c2ccc(C(F)(F)F)cc2)cc1 (stereo not shown) [Compound 22, 1-(Methylsulfonylamino)-3-[2-(4-methoxyphenyl)ethyl]-4-(4-trifluoromethyl-phenyl)-2-imidazolidinone] |
| 7 | COc1ccc(CCN2C(=O)N(N)CC2c2ccc(OC)cc2)cc1 (stereo not shown) [Compound 175, 1-amino-4-(4-methoxyphenyl)-3-[2-(4-methoxyphenyl)ethyl]imidazolidin-2-one] |
| 12 | COc1ccc(CCN2C(=O)N(NS(=O)(=O)CS(C)(=O)=O)CC2c2ccc(OC)cc2)cc1 (stereo not shown) [Compound 153, N-{4-(4-methoxyphenyl)-3-[2-(4-methoxyphenyl)ethyl]-2-oxoimidazolidin-1-yl}-1-(methylsulfonyl)methanesulfonamide] |
| 16 | COc1ccc(C2CN(NS(C)(=O)=O)C(=O)N2CCc2ccc(OC(F)(F)F)cc2)cc1 (stereo not shown) [Compound 152, N-[4-(4-methoxyphenyl)-2-oxo-3-{2-[4-(trifluoromethoxy)phenyl]ethyl}imidazolidin-1-yl]methanesulfonamide] |
| 5 | COc1ccc(CCN2C(=O)N(NS(=O)(=O)CC(N)=O)CC2c2ccc(OC)cc2)cc1 (stereo not shown) [Compound 115, 2-({4-(4-methoxyphenyl)-3-[2-(4-methoxyphenyl)ethyl]-2-oxoimidazolidin-1-yl}sulfamoyl)acetamide] |
| 46 | COc1ccc(CCN2C(=O)N(NCc3ccccn3)CC2c2ccc(C)c(C)c2)cc1 (stereo not shown) [Compound 93, 1-[(Pyridin-2-ylmethyl)amino]-3-[2-(4-methoxyphenyl)ethyl]-4-(3,4-dimethylphenyl)-2-imidazolidinone] |
| 4 | COc1ccc(CCN2C(=O)N(N)CC2Cc2ccc(F)cc2)cc1 (stereo not shown) [Compound 129, 1-amino-4-(4-fluorobenzyl)-3-[2-(4-methoxyphenyl)ethyl]imidazolidin-2-one] |
| 36 | COc1ccc(CCN2C(=O)N(NC(=O)Cc3cccnc3)CC2c2ccc(C3CC3)cc2)cc1 (stereo not shown) [Compound 122, N-{4-(4-cyclopropylphenyl)-3-[2-(4-methoxyphenyl)ethyl]-2-oxoimidazolidin-1-yl}-2-pyridin-3-ylacetamide] |
| 40 | COc1ccc(C2CN(NS(C)(=O)=O)C(=O)N2CCCc2ccccc2)cc1 (stereo not shown) [Compound 46, 1-(Methylsulfonylamino)-3-(3-phenylpropyl)-4-(4-methoxyphenyl)-2-imidazolidinone] |
| 38 | COc1ccc(CCN2C(=O)N(N3CCCS3(=O)=O)CC2c2ccc(C3CC3)cc2)cc1 (stereo not shown) [Compound 124, 4-(4-cyclopropylphenyl)-1-(1,1-dioxidoisothiazolidin-2-yl)-3-[2-(4-methoxyphenyl)ethyl]imidazolidin-2-one] |
| 14 | COc1ccc(CCN2C(=O)N(NS(=O)(=O)Cc3cccnc3)CC2c2ccc(F)cc2)cc1 (stereo not shown) [Compound 139, N-{4-(4-fluorophenyl)-3-[2-(4-methoxyphenyl)ethyl]-2-oxoimidazolidin-1-yl}-1-pyridin-3-ylmethanesulfonamide] |
| 42 | COc1ccc(CCN2C(=O)N(NS(=O)(=O)CCN3CCOCC3)CC2c2ccc3c(c2)OCCO3)cc1 (stereo not shown) [Compound 125, N-{4-(2,3-dihydro-1,4-benzodioxin-6-yl)-3-[2-(4-methoxyphenyl)ethyl]-2-oxoimidazolidin-1-yl}-2-morpholin-4-ylethanesulfonamide] |
| 25 | CCN(CC)c1ccc(CNN2CC(c3ccc(C(C)(C)C)cc3)N(CCc3ccc(OC)cc3)C2=O)cc1 (stereo not shown) [Compound 123, 4-(4-tert-butylphenyl)-1-{[4-(diethylamino)benzyl]amino}-3-[2-(4-methoxyphenyl)ethyl]imidazolidin-2-one] |

Reference: patent US7504517B2, “Kv1.5 potassium channel inhibitors” (Wyeth, priority 2006, dated 2009)
